The source made the active and inactive calls.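 The calls were made as follows: active = mean IC50 for reducing PEG3 promoter reporter signal at or below a set limit, with IC50 above the limit in both counter screens; inactive = the rest, including counter screen hits.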
Experiments:
PEG-3 [1] = target: PEG-3 (UniProt Q6IN02); assay: inhibition of PEG-3 promoter-driven reporter – cell-based, HeLa, luciferase, CREF/GAPDH counter-screen panel, dose response (AID 624167); details: HeLa PEG-Prom luciferase reporter, overnight, CREF/GAPDH counter-screens, mean of runs
PEG-3 (UniProt Q6IN02), sequence (Q6IN02 whole entry, looked up): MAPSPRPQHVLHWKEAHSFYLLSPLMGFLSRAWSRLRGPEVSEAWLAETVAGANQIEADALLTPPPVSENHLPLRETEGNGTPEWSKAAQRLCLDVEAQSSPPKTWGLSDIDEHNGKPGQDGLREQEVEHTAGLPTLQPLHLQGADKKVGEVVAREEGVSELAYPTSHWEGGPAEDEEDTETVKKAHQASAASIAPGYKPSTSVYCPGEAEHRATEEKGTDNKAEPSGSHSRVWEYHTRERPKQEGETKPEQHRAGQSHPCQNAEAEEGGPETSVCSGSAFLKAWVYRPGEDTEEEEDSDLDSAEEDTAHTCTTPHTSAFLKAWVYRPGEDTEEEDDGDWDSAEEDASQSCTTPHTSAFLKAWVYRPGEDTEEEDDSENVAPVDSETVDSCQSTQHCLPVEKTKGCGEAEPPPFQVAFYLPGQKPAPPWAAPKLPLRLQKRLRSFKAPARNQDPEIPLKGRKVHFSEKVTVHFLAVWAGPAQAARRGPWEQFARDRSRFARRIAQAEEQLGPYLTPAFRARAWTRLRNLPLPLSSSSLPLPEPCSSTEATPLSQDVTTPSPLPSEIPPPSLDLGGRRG

Rat fibroblasts (CREF) = assay: as above; details: CREF/GAPDH counter-screens
[2] = as above; details: CREF/GAPDH counter-screens; GAPDH; mean of runs
PEG-3 [3] = assay: as above; details: HeLa PEG-Prom luciferase reporter, overnight, CREF/GAPDH counter-screens
GAPDH = assay: as above; details: CREF/GAPDH counter-screens
[4] = run 1, dose range 1, individual replicate IC50 per panel
[5] = run 2, dose range 1, individual replicate IC50 per panel

| IC50 (PEG-3 [1]) [µM] | IC50 [2] | SMILES | IC50 (Rat fibroblasts (CREF); mean of runs) | IC50 (Rat fibroblasts (CREF); [4]) [µM] | IC50 (Rat fibroblasts (CREF); [5]) [µM] | IC50 (PEG-3 [3]; [4]) [µM] | IC50 (PEG-3 [3]; [5]) [µM] | IC50 (GAPDH; [4]) [µM] | IC50 (GAPDH; [5]) [µM] |
| --- | --- | --- | --- | --- | --- | --- | --- | --- | --- |
| 2.87 | inactive | CS(=O)(=O)Nc1cccc(NC(=O)C2Cc3c(-c4cccc(F)c4)ccnc3O2)c1 (configuration not stated) | > 100 µM (inactive) | > 100 | > 100 | 3.11 | 2.62 | > 100 | 44.6 |
| 5.47 | inactive | O=C(N/N=C/c1sc(N2CCOCC2)nc1-c1ccccc1)c1cccc(S(=O)(=O)N2CCCC2)c1 | 54 µM (inactive) | > 100 | 8 | 5.9 | 5.05 | 18.9 | 42 |
| 3.83 | > 100 µM (inactive) | Cc1cc(NC(c2ccc(Cl)cc2)c2ccc3cccnc3c2O)no1 (configuration not stated) | 77.2 µM (inactive) | > 100 | 54.4 | 7.2 | 0.472 | > 100 | > 100 |

From PubChem BioAssay AID624167 (Sanford-Burnham Center for Chemical Genomics, 2012)
